Test results reported in patent publication US8729061B2, “Pyrrolidine derivatives” (Hoffmann-La Roche Inc., priority 2011, dated 2014).

Experiments:
Type in all cases: biochemical
human Cat K = human Cat K (Homo sapiens (Human), UniProt P43235); test: Cathepsin enzyme inhibition assay (fluorogenic peptide substrate), Cat K; conditions: enzyme 1 nM, substrate Z-Leu-Arg-AMC 20 μM, pH 6.5
Protocol: (§1) Enzyme activity is measured by observing the increase in fluorescence intensity caused by cleavage of a peptide substrate containing a fluorophore whose emission is quenched in the intact peptide.
(§2) Assay buffer: 100 mM potassium phosphate pH 6.5, EDTA-Na 5 mM, Triton X-100 0.001%, DTT 5 mM.
(§3) Enzymes (all at 1 nM): human and mouse Cathepsin S, Cat K, Cat B, Cat L. Substrate (20 μM): Z-Val-Val-Arg-AMC, except for Cat K which uses Z-Leu-Arg-AMC (both from Bachem).
(§4) Excitation 360 nm, Emission 465 nm.
(§5) Enzyme is added to the substance dilutions in 96-well microtitre plates and the reaction is started with substrate. […] IC50 are calculated by standard methods. Inhibition of human Cat S, mouse Cat S, human Cat K, mouse Cat K, human Cat B, mouse Cat B, human Cat L and mouse Cat L have been measured separately.

human Cathepsin S = human Cathepsin S (Homo sapiens (Human), UniProt P25774); test: Cathepsin enzyme inhibition assay (fluorogenic peptide substrate), Cat S; conditions: enzyme 1 nM, substrate Z-Val-Val-Arg-AMC 20 μM, pH 6.5
Protocol: as §1, §2, §3, §4, §5

human Cat L = human Cat L (Homo sapiens (Human), UniProt P07711); test: Cathepsin enzyme inhibition assay (fluorogenic peptide substrate), Cat L; conditions: enzyme 1 nM, substrate Z-Val-Val-Arg-AMC 20 μM, pH 6.5
Protocol: as §1, §2, §3, §4, §5

human Cat B = human Cat B (Homo sapiens (Human), UniProt P07858); test: Cathepsin enzyme inhibition assay (fluorogenic peptide substrate), Cat B; conditions: enzyme 1 nM, substrate Z-Val-Val-Arg-AMC 20 μM, pH 6.5
Protocol: as §1, §2, §3, §4, §5

Sequence of human Cathepsin S (P25774 115-331): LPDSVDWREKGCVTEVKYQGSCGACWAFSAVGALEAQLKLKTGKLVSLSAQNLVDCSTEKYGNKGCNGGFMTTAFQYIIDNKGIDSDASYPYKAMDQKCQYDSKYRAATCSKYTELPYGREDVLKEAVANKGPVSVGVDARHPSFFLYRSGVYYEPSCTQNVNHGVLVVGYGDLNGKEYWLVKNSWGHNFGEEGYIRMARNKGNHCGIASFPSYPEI
Sequence of human Cat L (P07711 114-333): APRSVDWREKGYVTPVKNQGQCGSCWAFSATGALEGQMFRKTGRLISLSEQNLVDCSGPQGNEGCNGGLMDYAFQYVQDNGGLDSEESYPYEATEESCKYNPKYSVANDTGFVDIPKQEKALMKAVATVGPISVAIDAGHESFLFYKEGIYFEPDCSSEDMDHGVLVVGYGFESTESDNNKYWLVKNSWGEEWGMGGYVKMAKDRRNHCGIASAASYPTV
Sequence of human Cat K (P43235 115-329): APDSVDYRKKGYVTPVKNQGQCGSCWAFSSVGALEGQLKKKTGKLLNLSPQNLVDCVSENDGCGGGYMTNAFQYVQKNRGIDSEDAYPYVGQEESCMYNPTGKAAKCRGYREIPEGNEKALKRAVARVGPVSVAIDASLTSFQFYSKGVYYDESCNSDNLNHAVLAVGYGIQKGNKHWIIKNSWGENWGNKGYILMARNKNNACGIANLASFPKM

IC50 (human Cat K) [nM]	IC50 (human Cathepsin S) [nM]	IC50 (human Cat L) [nM]	IC50 (human Cat B) [nM]	Compound
7900	0.829	1910	11100	CC[C@H](NC(=O)[C@@H]1C[C@@H](S(=O)(=O)c2ccc(C)cc2C)CN1C(=O)OC(C)(C)C)C(=O)C(=O)NC1CC1 [Example 1, (2S,4R)-tert-butyl 2-((S)-1-(cyclopropylamino)-1,2-dioxopentan-3-ylcarbamoyl)-4-(2,4-dimethylphenylsulfonyl)pyrrolidine-1-carboxylate]
9430	–	2590	22600	CC[C@H](NC(=O)[C@@H]1C[C@@H](S(=O)(=O)c2ccc(Cl)cc2C)CN1C(=O)OC(C)(C)C)C(=O)C(=O)NC1CC1 [Example 2, (2S,4R)-tert-butyl 4-(4-chloro-2-methylphenylsulfonyl)-2-((S)-1-(cyclopropylamino)-1,2-dioxopentan-3-ylcarbamoyl)pyrrolidine-1-carboxylate]
7430	1	1550	3180	CC[C@H](NC(=O)[C@@H]1C[C@@H](S(=O)(=O)c2ccccc2C(F)(F)F)CN1c1ccccc1[N+](=O)[O-])C(=O)C(=O)NC1CC1 [Example 3, (2S,4R)—N—((S)-1-(cyclopropylamino)-1,2-dioxopentan-3-yl)-1-(2-nitrophenyl)-4-(2-(trifluoromethyl)phenylsulfonyl)pyrrolidine-2-carboxamide]
5890	2.98	551	2920	CC[C@H](NC(=O)[C@@H]1C[C@@H](S(=O)(=O)c2ccc(F)cc2C(F)(F)F)CN1c1cc(C)nn1C1CCC1)C(=O)C(=O)NC1CC1 [Example 4, (2S,4R)-1-(1-cyclobutyl-3-methyl-1H-pyrazol-5-yl)-N—((S)-1-(cyclopropylamino)-1,2-dioxopentan-3-yl)-4-(4-fluoro-2-(trifluoromethyl)phenylsulfonyl)pyrrolidine-2-carboxamide]
–	1.83	–	106000	CC[C@H](NC(=O)[C@@H]1C[C@@H](S(=O)(=O)c2ccccc2C(F)(F)F)CN1c1ccccc1[N+](=O)[O-])C(=O)c1nc2ccccc2o1 [Example 5, (2S,4R)-1-(2-Nitro-phenyl)-4-(2-trifluoromethyl-benzenesulfonyl)-pyrrolidine-2-carboxylic acid [(S)-1-(benzooxazole-2-carbonyl)-propyl]-amide]
168	0.976	202	1300	CC[C@H](NC(=O)[C@@H]1C[C@@H](S(=O)(=O)c2ccc(Br)cc2C(F)(F)F)CN1c1cc(C)nn1C1CCC1)C(=O)C(=O)NC1CC1 [Example 6, (2S,4R)-4-(4-bromo-2-(trifluoromethyl)phenylsulfonyl)-1-(1-cyclobutyl-3-methyl-1H-pyrazol-5-yl)-N—((S)-1-(cyclopropylamino)-1,2-dioxopentan-3-yl)pyrrolidine-2-carboxamide]
11300	3.78	3040	1850	CC[C@H](NC(=O)[C@@H]1C[C@@H](S(=O)(=O)c2ccccc2C(F)(F)F)CN1C(=O)C1(C(F)(F)F)CC1)C(=O)C(=O)NC1CC1 [Example 7, (2S,4R)—N—((S)-1-(cyclopropylamino)-1,2-dioxopentan-3-yl)-1-(1-(trifluoromethyl)cyclopropanecarbonyl)-4-(2-(trifluoromethyl)phenylsulfonyl)pyrrolidine-2-carboxamide]
27.6	0.296	4.3	62.7	CC[C@H](NC(=O)[C@@H]1C[C@@H](S(=O)(=O)c2ccccc2Cl)CN1C(=O)C1(c2ccc(Cl)cc2)CC1)C(=O)C(=O)NC1CC1 [Example 8, (2S,4R)-1-(1-(4-chlorophenyl)cyclopropanecarbonyl)-4-(2-chlorophenylsulfonyl)-N—((S)-1-(cyclopropylamino)-1,2-dioxopentan-3-yl)pyrrolidine-2-carboxamide]
19.6	0.367	4.7	43.3	CCC[C@H](NC(=O)[C@@H]1C[C@@H](S(=O)(=O)c2ccccc2Cl)CN1C(=O)C1(c2ccc(Cl)cc2)CC1)C(=O)C(=O)NC1CC1 [Example 9, (2S,4R)-1-(1-(4-chlorophenyl)cyclopropanecarbonyl)-4-(2-chlorophenylsulfonyl)-N—((S)-1-(cyclopropylamino)-1,2-dioxohexan-3-yl)pyrrolidine-2-carboxamide]
30.1	0.652	10.1	–	CC[C@H](NC(=O)[C@@H]1C[C@@H](S(=O)(=O)c2ccccc2Cl)CN1C(=O)C1(c2ccc(I)cc2)CC1)C(=O)C(=O)NC1CC1 [Example 17, (2S,4R)-4-(2-chlorophenylsulfonyl)-N—((S)-1-(cyclopropylamino)-1,2-dioxopentan-3-yl)-1-(1-(4-iodophenyl)cyclopropanecarbonyl)pyrrolidine-2-carboxamide]
–	0.328	5.2	97.3	CC(C)[C@H](NC(=O)[C@@H]1C[C@@H](S(=O)(=O)c2ccccc2Cl)CN1C(=O)C1(c2ccc(Cl)cc2)CC1)C(=O)C(=O)NC1CC1 [Example 28, (2S,4R)-1-(1-(4-chlorophenyl)cyclopropanecarbonyl)-4-(2-chlorophenylsulfonyl)-N—((S)-1-(cyclopropylamino)-4-methyl-1,2-dioxopentan-3-yl)pyrrolidine-2-carboxamide]
35.6	–	11.2	47.8	CCCCNC(=O)C(=O)[C@H](CC)NC(=O)[C@@H]1C[C@@H](S(=O)(=O)c2ccccc2Cl)CN1C(=O)C1(c2ccc(Cl)cc2)CC1 [Example 31, (2S,4R)—N—((S)-1-(butylamino)-1,2-dioxopentan-3-yl)-1-(1-(4-chlorophenyl)cyclopropanecarbonyl)-4-(2-chlorophenylsulfonyl)pyrrolidine-2-carboxamide]
28.7	0.634	–	115	CCC[C@H](NC(=O)[C@@H]1C[C@@H](S(=O)(=O)c2ccc(Cl)cc2Cl)CN1C(=O)C1(c2ccc(Cl)cc2)CC1)C(=O)C(=O)NC1CC1 [Example 42, (2S,4R)-1-(1-(4-chlorophenyl)cyclopropanecarbonyl)-N—((S)-1-(cyclopropylamino)-1,2-dioxohexan-3-yl)-4-(2,4-dichlorophenylsulfonyl)pyrrolidine-2-carboxamide]
–	0.508	13.6	112	CCNC(=O)C(=O)[C@H](CC)NC(=O)[C@@H]1C[C@@H](S(=O)(=O)c2ccccc2Cl)CN1C(=O)C1(c2ccc(Cl)cc2)CC1 [Example 43, (2S,4R)-1-(1-(4-chlorophenyl)cyclopropanecarbonyl)-4-(2-chlorophenylsulfonyl)-N—((S)-1-(ethylamino)-1,2-dioxopentan-3-yl)pyrrolidine-2-carboxamide]
49.1	–	0.9	323	CC(C)[C@H](NC(=O)[C@@H]1C[C@@H](S(=O)(=O)c2ccccc2Cl)CN1C(=O)C1(c2ncc(Cl)cc2F)CC1)C(=O)C(=O)NC1CC1 [Example 58, (2S,4R)-1-(1-(5-chloro-3-fluoropyridin-2-yl)cyclopropanecarbonyl)-4-(2-chlorophenylsulfonyl)-N—((S)-1-(cyclopropylamino)-4-methyl-1,2-dioxopentan-3-yl)pyrrolidine-2-carboxamide]
